One data set concerns A549. As to the kind of experiment: Cytotoxicity against human A549 cells. In kind it is toxicity, cell-based. Conditions: a549.
The next data set concerns Staphylococcus aureus. As to the kind of experiment: Antibacterial activity against Staphylococcus aureus. In kind it is functional. Conditions: Staphylococcus aureus; read-out: MIC.
A short description of data set [1]: Selectivity ratio of CC50 for human A549 cells to MIC for Staphylococcus aureus. In kind it is toxicity.

Converted amounts (≈) assume the structure as drawn.

In the case of `Cc1cc(Cl)cc2sc(N(CCCn3ccnc3)C(=O)C3CCCC3)nc12`, in the data set with A549, the CC50 (commonly the concentration at which the toxic effect on the cells reaches its halfway point) stood at 59.7 µM. The MIC (as a rule, the lowest concentration found to suppress growth) in the data set with Staphylococcus aureus came to 1.7 µM (≈ 0.685 µg/mL). In addition, in data set [1], the selectivity ratio is 34.

For the origin of these results see ChEMBL document CHEMBL5257105, “Identification and structure-activity relationships for a series of N, N-disubstituted 2-aminobenzothiazoles as potent inhibitors of S. aureus” (Bioorg Med Chem Lett, 2023).
